Results from ChEMBL document CHEMBL3608255 (ACS Med Chem Lett, 2015).
pKi: −log10 of the molar value.

Columns and labels:
MV4-11 = experiment: Cytotoxicity against human MV4-11 cells after 24 hrs by CellTiter-Blue assay; type: functional; details: MV4-11, 24 h
[1] = target: Bromodomain-containing protein 4 (Homo sapiens, UniProt O60885); experiment: Binding affinity to BRD4 (unknown origin) expressed in Escherichia coli BL21 after 1 hr by proprietary competition assay
[2] = target: Serine/threonine-protein kinase PLK1 (Homo sapiens, UniProt P53350); experiment: Binding affinity to PLK1 (unknown origin) expressed in HEK293 cells after 1 hr by proprietary competition assay; type: cell-based
Chain of Serine/threonine-protein kinase PLK1 (P53350 whole entry): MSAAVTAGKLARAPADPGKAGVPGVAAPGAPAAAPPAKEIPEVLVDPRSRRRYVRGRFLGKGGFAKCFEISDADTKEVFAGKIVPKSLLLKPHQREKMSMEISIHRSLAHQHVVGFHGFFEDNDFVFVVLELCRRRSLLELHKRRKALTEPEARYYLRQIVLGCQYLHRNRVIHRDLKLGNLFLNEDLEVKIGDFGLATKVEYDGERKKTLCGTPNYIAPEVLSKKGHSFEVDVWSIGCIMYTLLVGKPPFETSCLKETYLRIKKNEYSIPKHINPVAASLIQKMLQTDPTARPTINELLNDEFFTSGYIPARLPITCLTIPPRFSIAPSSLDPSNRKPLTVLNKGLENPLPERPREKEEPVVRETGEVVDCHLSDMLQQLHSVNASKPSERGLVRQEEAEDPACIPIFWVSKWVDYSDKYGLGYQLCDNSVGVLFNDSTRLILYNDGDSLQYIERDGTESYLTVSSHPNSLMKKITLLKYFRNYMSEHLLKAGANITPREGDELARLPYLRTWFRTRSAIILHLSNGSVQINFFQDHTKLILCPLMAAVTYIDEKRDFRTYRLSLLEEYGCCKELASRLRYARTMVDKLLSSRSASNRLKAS

SMILES | GI50 (MV4-11) | pKi [1] | pKi [2]
CC[C@@H]1C(=O)N(C)c2cnc(Nc3ccc(C(=O)NC4CCN(C)CC4)cc3)nc2N1C1CCCC1 | 3 nM | 7.22 | –
CC[C@@H]1C(=O)N(C)c2cnc(Nc3ccc(C(=O)NC4CCN(C)CC4)cc3OC)nc2N1C1CCCC1 [BI-2536] | 15.2 nM | – | –
CC[C@@H]1C(=O)N(C(C)C)c2cnc(Nc3ccc(C(=O)NC4CCN(C)CC4)cc3OC)nc2N1C1CCCC1 | 2670 nM | 5.35 | –
Cc1sc2c(c1C)C(c1ccc(Cl)cc1)=N[C@@H](CC(=O)OC(C)(C)C)c1nnc(C)n1-2 | 80 nM | – | –
CC[C@@H]1C(=O)N(C)c2cnc(Nc3ccc(C(=O)NC4CCN(C)CC4)cc3OCc3ccccc3)nc2N1C1CCCC1 | 356 nM | 7.00 | –
CC[C@@H]1C(=O)N(C)c2cnc(Nc3ccc(C(=O)NC4CCN(C)CC4)cc3OC)nc2N1CC(C)C | 40 nM | 6.01 | 8.16
CC[C@@H]1C(=O)N(C)c2cnc(Nc3ccc(C(=O)NC4CCN(C)CC4)cc3OC)nc2N1Cc1cccc(Br)c1 | 675 nM | 8.06 | 8.24
CC[C@@H]1C(=O)N(C)c2cnc(Nc3ccc(C(=O)NC4CCN(C)CC4)cc3OC3CCCC3)nc2N1C1CCCC1 | 240 nM | 7.57 | 9.08
CC[C@@H]1C(=O)N(CC(C)C)c2cnc(Nc3ccc(C(=O)NC4CCN(C)CC4)cc3OC)nc2N1C1CCCC1 | 2530 nM | < 5.00 | –
COc1cc(C(=O)NC2CCN(C)CC2)ccc1Nc1ncc2c(n1)N(C1CCCC1)CC(=O)N2C | 219 nM | 5.85 | –
CC[C@@H]1C(=O)N(C)c2cnc(Nc3ccc(C(=O)NC4CCN(C)CC4)cc3OCC(C)C)nc2N1C1CCCC1 | 154 nM | 7.54 | –
C[C@@H](Oc1cc(-n2cnc3ccc(CN4CCN(C)CC4)cc32)sc1C(N)=O)c1ccccc1C(F)(F)F [GSK-461364] | 679 nM | – | –
CC[C@@H]1C(=O)N(C)c2cnc(Nc3ccc(C(=O)NC4CCN(C)CC4)cc3F)nc2N1C1CCCC1 | 4 nM | 7.34 | –
CC[C@@H]1C(=O)N(C)c2cnc(Nc3ccc(C(=O)NC4CCN(C)CC4)c(OC)c3)nc2N1C1CCCC1 | 15 nM | 7.43 | 9.28
CC[C@@H]1C(=O)N(Cc2ccccc2)c2cnc(Nc3ccc(C(=O)NC4CCN(C)CC4)cc3OC)nc2N1C1CCCC1 | 7280 nM | < 5.00 | –
CC[C@@H]1C(=O)Nc2cnc(Nc3ccc(C(=O)NC4CCN(C)CC4)cc3OC)nc2N1C1CCCC1 | 219 nM | 5.10 | –
CC[C@H]1C(=O)N(C)c2cnc(Nc3ccc(C(=O)NC4CCN(C)CC4)cc3OC)nc2N1C1CCCC1 | 19 nM | – | –
CC[C@@H]1C(=O)N(C)c2cnc(Oc3ccc(C(=O)NC4CCN(C)CC4)cc3OC)nc2N1C1CCCC1 | 1340 nM | 7.00 | 6.62
CC[C@@H]1C(=O)N(CC)c2cnc(Nc3ccc(C(=O)NC4CCN(C)CC4)cc3OC)nc2N1C1CCCC1 | 392 nM | 6.33 | 9.04
COc1cc(C(=O)NC2CCN(C)CC2)ccc1Nc1ncc2c(n1)N(C1CCCC1)[C@H](Cc1ccccc1)C(=O)N2C | 1870 nM | < 5.00 | 8.38
